Experimental data: BindingDB's records for doi:10.1080/1475636021000005721 (Universit&Eacute, 2002)

What follows are molecules tested against Serotonin N-acetyltransferase (Homo sapiens, UniProt Q16613) (assay: AANAT Assay). Details: pH 6.8; 37 °C.
Chain of Serotonin N-acetyltransferase (Q16613 whole entry): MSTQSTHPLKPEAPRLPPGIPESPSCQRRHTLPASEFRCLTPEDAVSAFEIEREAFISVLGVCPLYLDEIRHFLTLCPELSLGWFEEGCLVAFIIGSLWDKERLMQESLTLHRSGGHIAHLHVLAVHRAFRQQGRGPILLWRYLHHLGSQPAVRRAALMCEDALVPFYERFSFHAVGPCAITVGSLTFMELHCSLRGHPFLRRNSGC
Description: The compounds were evaluated in a human serotonin N-acetyltransferase assay.
`O=C(CBr)NCCc1c[nH]c2ccccc12` showed an IC50 of 1430 nM.
With `COc1ccc2occ(CCNC(=O)CBr)c2c1` [AANAT Inhibitor, 8c] the IC50 was 40000 nM.
`COc1ccc2scc(CCNC(=O)CBr)c2c1` [AANAT Inhibitor, 8d] was tested, and the IC50 was 610 nM.
`O=C(CBr)NCCc1csc2ccccc12` [AANAT Inhibitor, 8e] was tested, and the IC50 was 680 nM.
In the case of `O=C(CBr)NCCc1csc2ccc(Br)cc12` [AANAT Inhibitor, 8g], the IC50 is reported as 3780 nM.
Molecule `O=C(CBr)NCCc1csc2ccc(F)cc12` [AANAT Inhibitor, 8h] has an IC50 of 390 nM.
With `CCc1ccc2scc(CCNC(=O)CBr)c2c1` [AANAT Inhibitor, 8i] the IC50 was 700 nM.
In the case of `O=C(CBr)NCCc1csc2ccc(O)cc12` [AANAT Inhibitor, 12d], the IC50 is reported as 180 nM.
